What all share (assay type): cell-based
Assay [1] deals with NTBC020 (E. coli strain expressing NDM-1, TEM-1 and CTX-M-15). Description: Meropenem MIC, broth micro-dilution, NTBC020. Conditions: Escherichia coli, read-out: MIC mero. On the procedure:
(§1) The experiments were carried out using the ‘broth micro-dilution method’ according to the protocols M07-A8 established by the Clinical Laboratory Standards Institute (CLSI). Serial dilutions of the β-lactam antibiotic (Meropenem) were prepared in 96-well plates in cation-adjusted Mueller-Hinton broth (CAMHB); the concentration range was defined from 0.03 mg/L to 512 mg/L. The compounds were added at a constant concentration of 8 μg/mL. A bacterial inoculum of each strain (clinical isolates) was adjusted to a 0.5 McFarland turbidity standard in physiologic serum (0.9% NaCl), then diluted 1:100 in CAMHB and added to each well to give a final bacterial cell number of 5×10^5 CFU/well. After incubation for 18-20 hours in a heating chamber at 37° C., the growth inhibition was evaluated by the absence of any bacterial development.
(§2) Compounds of the invention were tested at a constant concentration of 8 μg/mL. […]
(§3) Experiments were carried out using the ‘broth micro-dilution method’ according to the protocols M07-A8 established by the Clinical Laboratory Standards Institute (CLSI). […] After incubation for 18-20 hours in a heating chamber at 37° C., the growth inhibition was evaluated by the absence of any bacterial development. […]
A general note: Dilution methods test growth across graded concentrations, often in twofold steps.

Assay [2] deals with NTBC035-2 (K. pneumoniae strain expressing NDM-1, CMY-4 and SHV-11). Description: Meropenem MIC, broth micro-dilution, NTBC035-2. Particulars: Klebsiella pneumoniae, read-out: MIC mero. On the procedure: as §1, §2, §3
Assay [3] has as its system NTBC104-1 (K. pneumoniae strain expressing NDM-1 and SHV-11). Description: Meropenem MIC, broth micro-dilution, NTBC104-1. Particulars: Klebsiella pneumoniae. On the procedure: as §1
Compounds of the invention were tested at a constant concentration of 8 μg/mL. The clinical strains used in these potentiation experiments were NTBC020 (E. coli strain expressing NDM-1, TEM-1 and CTX-M-15); NTBC035-2 (K. pneumoniae strain expressing NDM-1, CMY-4 and SHV-11); NTBC104-1 (K. pneumoniae strain expressing NDM-1 and SHV-11); NTBC123 (K. pneumoniae strain expressing NDM-1); NTBC018 (C. freundii strain expressing VIM-2); NTBC024 (K. pneumoniae strain expressing VIM-19, TEM-1 and CTX-M-3); NTBC042 (E. coli strain expressing VIM-1, TEM-1, CTX-M-15, SHV-12); NTBC055 (E. Coli strain expressing VIM-1); NTBC062 (K. pneumoniae strain expressing IMP-1 and TEM-1) and NTBC039 (K. oxytoca strain expressing IMP-28).
Mice were infected in the thigh with K. pneumoniae NTBC104. […] The MIC of meropenem in the presence of 8 ug/mL of the compound of Example 2 is 4 ug/mL.
as §3

Assay [4] concerns NTBC123 (K. pneumoniae strain expressing NDM-1). Description: Meropenem MIC, broth micro-dilution, NTBC123. Particulars: Klebsiella pneumoniae, read-out: MIC mero. On the procedure:
as §1, §2, §3

Assay [5] has as its system NTBC062 (K. pneumoniae strain expressing IMP-1 and TEM-1). The experiment in a line: Meropenem MIC, broth micro-dilution, NTBC062. Conditions: Klebsiella pneumoniae, read-out: MIC mero. On the procedure: as §1, §2, §3
In assay [6] the test system is NTBC091-1 (E. coli strain expressing KPC-2 and TEM-1). Description: Meropenem MIC, broth micro-dilution, NTBC091-1. Particulars: Escherichia coli, read-out: MIC mero. On the procedure:
as §1, with “Experiments” for “The experiments”, “meropenem (mero)” for “the β-lactam antibiotic (Meropenem)”, “compounds (the compound of Example 2, above, and/or WCK4234)” for “compounds”, “the” for “a constant”, “indicated in the table below.” for “of 8 μg/mL.”
(§4) NTBC091-1 (E. coli strain expressing KPC-2 and TEM-1); NTBC093 (E. cloacae strain expressing KPC-2 and TEM-1); NTBC096-1 (K. pneumonia strain expressing OXA-181 and SHV-11); NTBC099 (K. pneumonia strain expressing KPC-3, SHV-11 and TEM-1); and NTBC189 (K. pneumonia strain expressing TEM-OSBL, CTX-M-14 and OXA-48).

Assay [7] has as its system NTBC093 (E. cloacae strain expressing KPC-2 and TEM-1). Description: Meropenem MIC, broth micro-dilution, NTBC093. Particulars: Enterobacter cloacae, read-out: MIC mero. On the procedure:
as §1, with “Experiments” for “The experiments”, “meropenem (mero)” for “the β-lactam antibiotic (Meropenem)”, “compounds (the compound of Example 2, above, and/or WCK4234)” for “compounds”, “the” for “a constant”, “indicated in the table below.” for “of 8 μg/mL.”
as §4

Assay [8] relates to NTBC096-1 (K. pneumonia strain expressing OXA-181 and SHV-11). The experiment in a line: Meropenem MIC, broth micro-dilution, NTBC096-1. Conditions: Klebsiella pneumoniae, read-out: MIC mero. On the procedure:
as §1, with “Experiments” for “The experiments”, “meropenem (mero)” for “the β-lactam antibiotic (Meropenem)”, “compounds (the compound of Example 2, above, and/or WCK4234)” for “compounds”, “the” for “a constant”, “indicated in the table below.” for “of 8 μg/mL.”
as §4

The subject of assay [9] is NTBC099 (K. pneumonia strain expressing KPC-3, SHV-11 and TEM-1). Description: Meropenem MIC, broth micro-dilution, NTBC099. Conditions: Klebsiella pneumoniae, read-out: MIC mero. On the procedure: as §1, with “Experiments” for “The experiments”, “meropenem (mero)” for “the β-lactam antibiotic (Meropenem)”, “compounds (the compound of Example 2, above, and/or WCK4234)” for “compounds”, “the” for “a constant”, “indicated in the table below.” for “of 8 μg/mL.”
as §4

The test system of assay [10] is NTBC189 (K. pneumonia strain expressing TEM-OSBL, CTX-M-14 and OXA-48). The experiment in a line: Meropenem MIC, broth micro-dilution, NTBC189. Conditions: Klebsiella pneumoniae, read-out: MIC mero. On the procedure: as §1, with “Experiments” for “The experiments”, “meropenem (mero)” for “the β-lactam antibiotic (Meropenem)”, “compounds (the compound of Example 2, above, and/or WCK4234)” for “compounds”, “the” for “a constant”, “indicated in the table below.” for “of 8 μg/mL.”
as §4

The subject of assay [11] is NTBC186 (K. pneumonia strain expressing ACT-TYPE, VIM-1 and OXA-48). The experiment in a line: Meropenem MIC, broth micro-dilution, NTBC186. Conditions: Klebsiella pneumoniae, read-out: MIC mero. On the procedure:
as §1, with “Experiments” for “The experiments”, “meropenem (mero)” for “the β-lactam antibiotic (Meropenem)”, “compounds (the compound of Example 2, above, and/or WCK4234)” for “compounds”, “the” for “a constant”, “indicated in the table below.” for “of 8 μg/mL.”
(§5) NTBC019 (K. pneumonia strain expressing NDM-1, CTX-M-15 and OXA-181); NTBC185 (K. pneumonia strain expressing SHV-OSBL, TEM-OSBL, NDM-1 and OXA-48); NTBC186 (K. pneumonia strain expressing ACT-TYPE, VIM-1 and OXA-48); NTBC187 (K. pneumonia strain expressing SHV-OSBL, NDM-1 and OXA-48); and NTBC188 (K. pneumonia strain expressing NDM-1 and KPC-2).

For assay [12], the system named is NTBC187 (K. pneumonia strain expressing SHV-OSBL, NDM-1 and OXA-48). Description: Meropenem MIC, broth micro-dilution, NTBC187. Particulars: Klebsiella pneumoniae, read-out: MIC mero. On the procedure:
as §1, with “Experiments” for “The experiments”, “meropenem (mero)” for “the β-lactam antibiotic (Meropenem)”, “compounds (the compound of Example 2, above, and/or WCK4234)” for “compounds”, “the” for “a constant”, “indicated in the table below.” for “of 8 μg/mL.”
as §5

Converted amounts (≈) assume the structure as drawn. Where two headings read alike, the source gives them in different places.

As usually defined, the MIC is the lowest concentration that inhibits growth of the organism. `C[C@@H](O)[C@H]1C(=O)N2C(C(=O)O)=C(S[C@@H]3CN[C@H](C(=O)N(C)C)C3)[C@H](C)[C@H]12` [Meropenem]: the MIC in assay [1] came to 128 µg/mL; in assay [2] it was 64 µg/mL; in assay [3] (read-out: MIC mero), 64 µg/mL; in assay [3] (read-out: MIC of meropenem against K. pneumoniae NTBC104), 64 µg/mL; in assay [4] it was 128 µg/mL; in [5], 4 µg/mL. Moreover, the MIC in assay [6] was found to be 4 µg/mL (≈ 10.4 µM); in [7] it was 128 µg/mL (≈ 334 µM); in assay [8], 16 µg/mL (≈ 41.7 µM); in assay [9] it was 128 µg/mL (≈ 334 µM); in assay [10], 16 µg/mL (≈ 41.7 µM); in assay [11] it was 16 µg/mL (≈ 41.7 µM). Moreover, in assay [12], the minimal inhibitory concentration (MIC) stood at 128 µg/mL (≈ 334 µM).

For the origin of these results see patent US11299467B2 (Antabio SAS, priority 2017, dated 2022).
